Results taken from PubChem BioAssay AID1259407 (Chemical Carcinogenesis Research Information System (CCRIS), 2018).
Active and inactive are the calls of the source. How the calls were made is not given here.

Tested on: CCRIS mutagenicity, Ames/micronucleus/aberration tests
Test: CCRIS mutagenicity studies
[1] = Test System: AMES SALMONELLA TYPHIMURIUM, Strain/Indicator: TA98, Metabolic Activation: NONE, Method: STANDARD PLATE
[2] = Test System: AMES SALMONELLA TYPHIMURIUM, Strain/Indicator: TA98, Metabolic Activation: RAT, LIVER, S-9, AROCLOR 1254, Method: STANDARD PLATE
[3] = Test System: AMES SALMONELLA TYPHIMURIUM, Strain/Indicator: TA100, Metabolic Activation: NONE, Method: STANDARD PLATE
[4] = Test System: AMES SALMONELLA TYPHIMURIUM, Strain/Indicator: TA100, Metabolic Activation: RAT, LIVER, S-9, AROCLOR 1254, Method: STANDARD PLATE
[5] = Test System: AMES SALMONELLA TYPHIMURIUM, Strain/Indicator: TA102, Metabolic Activation: NONE, Method: STANDARD PLATE
[6] = Test System: AMES SALMONELLA TYPHIMURIUM, Strain/Indicator: TA102, Metabolic Activation: RAT, LIVER, S-9, AROCLOR 1254, Method: STANDARD PLATE

With C[C@]12C=CC3=C4CCC(=O)C=C4CC[C@H]3[C@@H]1CC[C@H]2O the mutagenic call [1] was “inactive; negative”, the mutagenic call [2] was “inactive; negative” and the mutagenic call [3] was “inactive; negative”. For the same molecule, the mutagenic call [4] was “inactive; negative”, the mutagenic call (Test System: AMES SALMONELLA TYPHIMURIUM, Strain/Indicator: TA1535, Metabolic Activation: NONE, Method: STANDARD PLATE) was “inactive; negative” and the mutagenic call (Test System: AMES SALMONELLA TYPHIMURIUM, Strain/Indicator: TA1535, Metabolic Activation: RAT, LIVER, S-9, AROCLOR 1254, Method: STANDARD PLATE) was “inactive; negative”. The mutagenic call (Test System: AMES SALMONELLA TYPHIMURIUM, Strain/Indicator: TA1537, Metabolic Activation: NONE, Method: STANDARD PLATE) was “inactive; negative”, the mutagenic call (Test System: AMES SALMONELLA TYPHIMURIUM, Strain/Indicator: TA1537, Metabolic Activation: RAT, LIVER, S-9, AROCLOR 1254, Method: STANDARD PLATE) was “inactive; negative” and the mutagenic call (Test System: AMES SALMONELLA TYPHIMURIUM, Strain/Indicator: TA1538, Metabolic Activation: NONE, Method: STANDARD PLATE) was “inactive; negative”. For the same molecule, the mutagenic call (Test System: AMES SALMONELLA TYPHIMURIUM, Strain/Indicator: TA1538, Metabolic Activation: RAT, LIVER, S-9, AROCLOR 1254, Method: STANDARD PLATE) was “inactive; negative”, the mutagenic call (Test System: CHO/HGPRT, Strain/Indicator: CHO-K1-BH4, Metabolic Activation: NONE, Method: STANDARD PLATE) was “inactive; negative” and the mutagenic call (Test System: CHO/HGPRT, Strain/Indicator: CHO-K1-BH4, Metabolic Activation: RAT, LIVER, S-9, AROCLOR 1254, Method: STANDARD PLATE) was “inactive; negative”.

In the case of CCCCCC(=O)O, the mutagenic call (Test System: AMES SALMONELLA TYPHIMURIUM, Strain/Indicator: TA97, Metabolic Activation: NONE, Method: PREINCUBATION) is reported as “inactive; negative”, the mutagenic call (Test System: AMES SALMONELLA TYPHIMURIUM, Strain/Indicator: TA97, Metabolic Activation: RAT, LIVER, S-9, AROCLOR 1254, Method: PREINCUBATION) is reported as “inactive; negative” and the mutagenic call (Test System: AMES SALMONELLA TYPHIMURIUM, Strain/Indicator: TA102, Metabolic Activation: NONE, Method: PREINCUBATION) is reported as “inactive; negative”. The mutagenic call (Test System: AMES SALMONELLA TYPHIMURIUM, Strain/Indicator: TA102, Metabolic Activation: RAT, LIVER, S-9, AROCLOR 1254, Method: PREINCUBATION) was “inactive; negative”.

O[C@@H]1[C@H]2O[C@H]2c2cc3c(ccc4ccccc43)cc2[C@H]1O was tested, and the mutagenic call (Test System: CHINESE HAMSTER V-79, Strain/Indicator: V-79/8-AZAGUANINE, Metabolic Activation: NONE, Method: STANDARD PLATE) was “active; positive”.

For CNC(=O)Oc1cccc2c1OC(C)(C)C2O (stereo unspecified), the mutagenic call (End Point: IN VIVO MICRONUCLEUS, Test System: BONE MARROW POLYCHROMATIC ERYTHROCYTES, Species: MOUSE, Strain/Sex: KM/MALE, FEMALE, Route: IP INJECTION) was “active; positive”.

For ClC1=C(Cl)[C@]2(Cl)[C@@H]3[C@@H]4C[C@@H]([C@H]5O[C@@H]45)[C@@H]3[C@@]1(Cl)C2(Cl)Cl, the mutagenic call (End Point: IN VITRO CHROMOSOMAL ABERRATIONS, Test System: CHINESE HAMSTER OVARY CELLS, Metabolic Activation: NONE) was “inactive; negative”, the mutagenic call (End Point: IN VITRO CHROMOSOMAL ABERRATIONS, Test System: CHINESE HAMSTER OVARY CELLS, Metabolic Activation: RAT, LIVER, S-9, AROCLOR 1254) was “inactive; negative; precipitation occurred at all doses” and the mutagenic call (Test System: AMES SALMONELLA TYPHIMURIUM, Strain/Indicator: TA97, Metabolic Activation: NONE, Method: STANDARD PLATE) was “inactive; negative”. For the same molecule, the mutagenic call (Test System: AMES SALMONELLA TYPHIMURIUM, Strain/Indicator: TA97, Metabolic Activation: RAT, LIVER, S-9, AROCLOR 1254, Method: STANDARD PLATE) was “inactive; negative”, the mutagenic call [1] was “inactive; negative” and the mutagenic call [2] was “inactive; negative”. The mutagenic call [3] was “inactive; negative”, the mutagenic call [4] was “inactive; negative” and the mutagenic call [5] was “inactive; negative”. For the same molecule, the mutagenic call [6] was “inactive; negative”, the mutagenic call (Test System: CHINESE HAMSTER V-79, Strain/Indicator: V-79/OUABAIN, Metabolic Activation: NONE, Method: STANDARD PLATE) was “active; positive” and the mutagenic call (Test System: MOUSE LYMPHOMA, Strain/Indicator: L5178Y (TK+/TK-), Metabolic Activation: NONE, Method: SUSPENSION/PLATE) was “active; positive”.

Fc1cc2cccnc2c2cccnc12 was tested, and the mutagenic call (Test System: AMES SALMONELLA TYPHIMURIUM, Strain/Indicator: TA100, Metabolic Activation: RAT, LIVER, S-9, PHENOBARBITAL AND 5,6-BENZOFLAVONE, Method: PREINCUBATION) was “active; positive”.

In the case of NN=C(N)N, the mutagenic call (Test System: AMES SALMONELLA TYPHIMURIUM, Strain/Indicator: TA98, Metabolic Activation: NONE, Method: PREINCUBATION) is reported as “inactive; negative”, the mutagenic call (Test System: AMES SALMONELLA TYPHIMURIUM, Strain/Indicator: TA98, Metabolic Activation: RAT LIVER S-9, PHENOBARBITAL AND BETA-NAPHTHOFLAVONE, Method: PREINCUBATION) is reported as “inactive; negative” and the mutagenic call (Test System: AMES SALMONELLA TYPHIMURIUM, Strain/Indicator: TA100, Metabolic Activation: NONE, Method: PREINCUBATION) is reported as “inactive; negative”. For the same molecule, the mutagenic call (Test System: AMES SALMONELLA TYPHIMURIUM, Strain/Indicator: TA100, Metabolic Activation: RAT LIVER S-9, PHENOBARBITAL AND BETA-NAPHTHOFLAVONE, Method: PREINCUBATION) was “inactive; negative”, the mutagenic call (Test System: AMES SALMONELLA TYPHIMURIUM, Strain/Indicator: TA1535, Metabolic Activation: NONE, Method: PREINCUBATION) was “inactive; negative” and the mutagenic call (Test System: AMES SALMONELLA TYPHIMURIUM, Strain/Indicator: TA1535, Metabolic Activation: RAT LIVER S-9, PHENOBARBITAL AND BETA-NAPHTHOFLAVONE, Method: PREINCUBATION) was “inactive; negative”. The mutagenic call (Test System: AMES SALMONELLA TYPHIMURIUM, Strain/Indicator: TA1537, Metabolic Activation: NONE, Method: PREINCUBATION) was “inactive; negative”, the mutagenic call (Test System: AMES SALMONELLA TYPHIMURIUM, Strain/Indicator: TA1537, Metabolic Activation: RAT LIVER S-9, PHENOBARBITAL AND BETA-NAPHTHOFLAVONE, Method: PREINCUBATION) was “inactive; negative” and the mutagenic call (Test System: E.COLI, Strain/Indicator: WP2UVRA/PKM101, Metabolic Activation: NONE, Method: PREINCUBATION) was “inactive; negative”. The mutagenic call (Test System: E.COLI, Strain/Indicator: WP2UVRA/PKM101, Metabolic Activation: RAT LIVER S-9, PHENOBARBITAL AND BETA-NAPHTHOFLAVONE, Method: PREINCUBATION) was “inactive; negative”.

In the case of Cc1cc(C)cc(C)c1, the mutagenic call (Test System: AMES SALMONELLA TYPHIMURIUM, Strain/Indicator: TA97A, Metabolic Activation: NONE, Method: STANDARD PLATE) is reported as “inactive; negative”, the mutagenic call (Test System: AMES SALMONELLA TYPHIMURIUM, Strain/Indicator: TA97A, Metabolic Activation: RAT, LIVER, S-9, AROCLOR 1254, Method: STANDARD PLATE) is reported as “inactive; negative” and the mutagenic call [1] is reported as “inactive; negative”. For the same molecule, the mutagenic call [2] was “inactive; negative”, the mutagenic call [3] was “inactive; negative” and the mutagenic call [4] was “inactive; negative”. For the same molecule, the mutagenic call [5] was “inactive; negative” and the mutagenic call [6] was “inactive; negative”.

With Cn1c(N)nc2ccc3ncccc3c21 the mutagenic call (Test System: AMES SALMONELLA TYPHIMURIUM, Strain/Indicator: TA98, Metabolic Activation: RAT, LIVER, S-9, AROCLOR 1254, Method: PREINCUBATION) was “active; positive” and the mutagenic call (Test System: AMES SALMONELLA TYPHIMURIUM, Strain/Indicator: TA100, Metabolic Activation: RAT, LIVER, S-9, AROCLOR 1254, Method: PREINCUBATION) was “active; positive”.
